Where only a bound is given, the exact number is not on record here.

This assay has as its system Plutella xylostella. Description: Plutella xylostella, leaf dip method. The format is in vivo. The conditions noted are these: foliar, cabbage leaf dip, second instar larvae, 72 h after release, dead + moribund vs untreated control, read-out: percent mortality. The protocol: The leaf dip method was used for testing, wherein the required quantity of the compound was weighed and dissolved in a tube containing solvent solution. The tube was put on a vortex at 2000 rpm for 90 min for proper mixing, then diluted with 0.01% Triton-X solution to get the desired test concentration. Cabbage leaves were dipped in the compound solution for 10 seconds, shade dried for 20 min and then transferred into the cells of bioassay trays. A single second instar larva was released into each cell and the tray was covered with a lid. The bio-assay trays were then kept under laboratory conditions at a temperature of 25° C. and a relative humidity of 70%. Observations on dead, moribund and alive larvae were recorded 72 h after the release. Percent mortality was calculated by combining dead and moribund larvae and comparing the result to the one of the untreated control.
As to `CCS(=O)(=O)c1ccc(OC2CSC2)nc1-c1ccn2nc(C(F)(F)F)cc2n1` [Compound 243, 5-(3-(ethylsulfonyl)-6-(thietan-3-yloxy)pyridin-2-yl)-2-(trifluoromethyl)pyrazolo[1,5-a]pyrimidine], the mortality at 300 ppm was at least 70%. The figure for `CCS(=O)(=O)c1cc(-c2ccc(Cl)c(F)c2)cnc1-c1ncc2nc(C(F)(F)F)n(C)c2n1` [Compound 124, 2-(5-(4-chloro-3-fluorophenyl)-3-(ethylsulfonyl)pyridin-2-yl)-9-methyl-8-(trifluoromethyl)-9H-purine] is at least 70%; for `CCS(=O)(=O)c1ccc(-n2ncn(-c3ccc(OC(F)(F)F)cc3)c2=O)nc1-c1ccn2nc(C(F)(F)F)cc2n1` [Compound 10, 2-(5-(ethylsulfonyl)-6-(2-(trifluoromethyl)pyrazolo[1,5-a]pyrimidin-5-yl)pyridin-2-yl)-4-(4-(trifluoromethoxy)phenyl)-2,4-dihydro-3H-1,2,4-triazol-3-one] it is at least 70%. The figure for `CCS(=O)(=O)c1cc(-c2cc(C(F)(F)F)nn2C)cnc1-c1ncc2nc(C(F)(F)F)n(C)c2n1` [Compound 121, 2-(3-(ethylsulfonyl)-5-(1-methyl-3-(trifluoromethyl)-1H-pyrazol-5-yl)pyridin-2-yl)-9-methyl-8-(trifluoromethyl)-9H-purine] is at least 70%; for `CCS(=O)(=O)c1cc(-c2cncnc2)cnc1-c1ccn2nc(C(F)(F)F)nc2n1` [Compound 135, 5-(3-(ethylsulfonyl)-5-(pyrimidin-5-yl)pyridin-2-yl)-2-(trifluoromethyl)-[1,2,4]triazolo[1,5-a]pyrimidine] it is at least 70%. Take `CCS(=O)(=O)c1cc(-c2cccc(C(F)(F)F)c2)cnc1-c1ncc2nc(C(F)(F)F)n(C)c2n1` [Compound 117, 2-(3-(ethylsulfonyl)-5-(3-(trifluoromethyl)phenyl)pyridin-2-yl)-9-methyl-8-(trifluoromethyl)-9H-purine]: the mortality at 300 ppm was at least 70%. The value for `CCS(=O)(=O)c1cc(-n2cnc(Cl)n2)cnc1-c1ccn2nc(C(F)(F)F)nc2n1` [Compound 148, 5-(5-(3-chloro-1H-1,2,4-triazol-1-yl)-3-(ethylsulfonyl)pyridin-2-yl)-2-(trifluoromethyl)-[1,2,4]triazolo[1,5-a]pyrimidine] was at least 70%; that for `CCS(=O)(=O)c1cc(NC2CC2)cnc1-c1ccn2nc(C(F)(F)F)cc2n1` [Compound 170, N-cyclopropyl-5-(ethylsulfonyl)-6-(2-(trifluoromethyl)pyrazolo[1,5-a]pyrimidin-5-yl)pyridin-3-amine] was at least 70%. Turning to `CCS(=O)(=O)c1cc(-n2cnc(C)n2)cnc1-c1ccn2nc(C(F)(F)F)cc2n1` [Compound 69, 5-(3-(ethylsulfonyl)-5-(3-methyl-1H-1,2,4-triazol-1-yl)pyridin-2-yl)-2-(trifluoromethyl)pyrazolo[1,5-a]pyrimidine], the mortality at 300 ppm is at least 70%. The figure for `CCS(=O)(=O)c1cc(NC(=O)OC(C)(C)C)cnc1-c1ccn2nc(C(F)(F)F)cc2n1` [Compound 222, tert-butyl (5-(ethylsulfonyl)-6-(2-(trifluoromethyl)pyrazolo[1,5-a]pyrimidin-5-yl)pyridin-3-yl)carbamate] is at least 70%. The value for `CCS(=O)(=O)c1cc(-n2cnc(Br)n2)cnc1-c1ccn2nc(C(F)(F)F)cc2n1` [Compound 177, 5-(5-(3-bromo-1H-1,2,4-triazol-1-yl)-3-(ethylsulfonyl)pyridin-2-yl)-2-(trifluoromethyl)pyrazolo[1,5-a]pyrimidine] was at least 70%; that for `CCS(=O)(=O)c1cc(C=C(C)C)cnc1-c1ccn2nc(C(F)(F)F)cc2n1` [Compound 201, 5-(3-(ethylsulfonyl)-5-(2-methylprop-1-en-1-yl)pyridin-2-yl)-2-(trifluoromethyl)pyrazolo[1,5-a]pyrimidine] was at least 70%.

For `CCS(=O)(=O)c1cc(-n2cc(Cl)cn2)cnc1-c1ccn2nc(C(F)(F)F)cc2n1` [Compound 89], the mortality at 300 ppm was at least 70%.

For the compound `CCS(=O)(=O)c1cc(-c2cncnc2)cnc1-c1ccn2nc(C(F)(F)F)cc2n1` [Compound 95, 5-(3-(ethylsulfonyl)-5-(pyrimidin-5-yl)pyridin-2-yl)-2-(trifluoromethyl)pyrazolo[1,5-a]pyrimidine], the mortality at 300 ppm was at least 70%. The value for `CCS(=O)(=O)c1ccc(NC(C)C)nc1-c1ccn2nc(C(F)(F)F)cc2n1` [Compound 241, 5-(ethylsulfonyl)-N-isopropyl-6-(2-(trifluoromethyl)pyrazolo[1,5-a]pyrimidin-5-yl)pyridin-2-amine] was at least 70%; that for `CCS(=O)(=O)c1cc(-c2ccn3nc(C(F)(F)F)cc3n2)cnc1-n1cncn1` [Compound 31, 5-(5-(ethylsulfonyl)-6-(1H-1,2,4-triazol-1-yl)pyridin-3-yl)-2-(trifluoromethyl)pyrazolo[1,5-a]pyrimidine] was at least 70%. As to `CCS(=O)(=O)c1ccc(OC(C)C)nc1-c1ccn2nc(C(F)(F)F)cc2n1` [Compound 240, 5-(3-(ethylsulfonyl)-6-isopropoxypyridin-2-yl)-2-(trifluoromethyl)pyrazolo[1,5-a]pyrimidine], the mortality at 300 ppm was at least 70%. Regarding `CCS(=O)(=O)c1ccc(-n2cncn2)nc1-c1ccn2nc(C(F)(F)F)cc2n1` [Compound 3, 5-(3-(ethylsulfonyl)-6-(1H-1,2,4-triazol-1-yl)pyridin-2-yl)-2-(trifluoromethyl)pyrazolo[1,5-a]pyrimidine], the mortality at 300 ppm is at least 70%. The figure for `CCS(=O)(=O)c1ccc(-c2ccccc2)nc1-c1ccn2nc(C(F)(F)F)cc2n1` [Compound 15, 5-(3-(ethylsulfonyl)-6-phenylpyridin-2-yl)-2-(trifluoromethyl)pyrazolo[1,5-a]pyrimidine] is at least 70%; for `CCS(=O)(=O)c1ccc(-n2nc3ccc(C(F)(F)F)cn3c2=O)nc1-c1ccn2nc(C(F)(F)F)cc2n1` [Compound 27, 2-(5-(ethylsulfonyl)-6-(2-(trifluoromethyl)pyrazolo[1,5-a]pyrimidin-5-yl)pyridin-2-yl)-6-(trifluoromethyl)-[1,2,4]triazolo[4,3-a]pyridin-3(2H)-one] it is at least 70%; for `CCS(=O)(=O)c1cc(-c2ccn3nc(C(F)(F)F)cc3n2)cnc1-n1ncn(-c2ccc(Cl)cc2)c1=O` [Compound 80, 4-(4-chlorophenyl)-2-(3-(ethylsulfonyl)-5-(2-(trifluoromethyl)pyrazolo[1,5-a]pyrimidin-5-yl)pyridin-2-yl)-2,4-dihydro-3H-1,2,4-triazol-3-one] it is at least 70%.

For the compound `CCSc1cc(C2CC2)cnc1-c1ccn2nc(C(F)(F)F)cc2n1` [Compound 189, 5-(5-cyclopropyl-3-(ethylthio)pyridin-2-yl)-2-(trifluoromethyl)pyrazolo[1,5-a]pyrimidine], the mortality at 300 ppm was at least 70%. As for `CCS(=O)(=O)c1ccc(O)nc1-c1ccn2nc(C(F)(F)F)cc2n1` [Compound 236, 5-(ethylsulfonyl)-6-(2-(trifluoromethyl)pyrazolo[1,5-a]pyrimidin-5-yl)pyridin-2-ol], the mortality at 300 ppm was at least 70%. The value for `CCS(=O)(=O)c1cc(-c2cc(F)cc(Cl)c2)cnc1-c1ncc2nc(C(F)(F)F)n(C)c2n1` [Compound 131, 2-(5-(3-chloro-5-fluorophenyl)-3-(ethylsulfonyl)pyridin-2-yl)-9-methyl-8-(trifluoromethyl)-9H-purine] was at least 70%; that for `CCS(=O)(=O)c1ccc(CC#N)nc1-c1ccn2nc(C(F)(F)F)cc2n1` [Compound 217, 2-(5-(ethylsulfonyl)-6-(2-(trifluoromethyl)pyrazolo[1,5-a]pyrimidin-5-yl)pyridin-2-yl)acetonitrile] was at least 70%.

As for `CCS(=O)(=O)c1cc(-c2ccc(Cl)cc2)cnc1-c1ncc2nc(C(F)(F)F)n(C)c2n1` [Compound 123, 2-(5-(4-chlorophenyl)-3-(ethylsulfonyl)pyridin-2-yl)-9-methyl-8-(trifluoromethyl)-9H-purine], the mortality at 300 ppm was at least 70%. The figure for `CCS(=O)(=O)c1cc(-c2cc(F)cc(F)c2)cnc1-c1ncc2nc(C(F)(F)F)n(C)c2n1` [Compound 122, 2-(5-(3,5-difluorophenyl)-3-(ethylsulfonyl)pyridin-2-yl)-9-methyl-8-(trifluoromethyl)-9H-purine] is at least 70%.

As for `CCS(=O)(=O)c1cc(-c2cccc(OC(F)(F)C(F)F)c2)cnc1-c1ccn2nc(C(F)(F)F)nc2n1` [Compound 144, 5-(3-(ethylsulfonyl)-5-(3-(1,1,2,2-tetrafluoroethoxy)phenyl)pyridin-2-yl)-2-(trifluoromethyl)-[1,2,4]triazolo[1,5-a]pyrimidine], the mortality at 300 ppm is at least 70%. The value for `CCS(=O)(=O)c1cc(-c2ccnn2C)cnc1-c1ccn2nc(C(F)(F)F)cc2n1` [Compound 71, 5-(3-(ethylsulfonyl)-5-(1-methyl-1H-pyrazol-5-yl)pyridin-2-yl)-2-(trifluoromethyl)pyrazolo[1,5-a]pyrimidine] was at least 70%; that for `CCS(=O)(=O)c1ccc(C=C(C)C)nc1-c1ccn2nc(C(F)(F)F)cc2n1` [Compound 210, 5-(3-(ethylsulfonyl)-6-(2-methylprop-1-en-1-yl)pyridin-2-yl)-2-(trifluoromethyl)pyrazolo[1,5-a]pyrimidine] was at least 70%. In the case of `CCSc1ccc(-n2cncn2)nc1-c1cnc2cc(C(F)(F)F)nn2c1` [Compound 40, 6-(3-(ethylthio)-6-(1H-1,2,4-triazol-1-yl)pyridin-2-yl)-2-(trifluoromethyl)pyrazolo[1,5-a]pyrimidine], the mortality at 300 ppm was at least 70%.

The values above are taken from US12514251B2, “Fused heterocyclic compounds and their use as pest control agents” (priority 2020, dated 2026).
